Experimental data as given in PMC9963121, “Development of Combretastatin A-4 Analogues as Potential Anticancer Agents with Improved Aqueous Solubility” (Molecules, 2023).
Structures can show the parent of a compound that is named as a salt.

Columns and labels:
[1] = system: MCF-7 breast cancer cell; assay: MTT cell growth inhibition assay, MCF-7 breast cancer cells; format: cell-based; conditions: Homo sapiens, MCF7, mean ± SD of three experiments
Text: (§1) Initially, we designed and synthesised seven compounds—9a and 12a1–12a6—and evaluated the anticancer activity and aqueous solubility. We evaluated the cytotoxic effects of these stilbene nitrile analogues against a panel of four human cancer cell lines (HCT-116, BEL-7402, MCF-7 and AGS) and two human non-cancerous normal cell lines (L-02 and MCF-10A), using CA-4 as a control. The compounds were screened for aqueous solubility in 0.01 M PBS using a high throughput UV method. […] It is possible that the size of the nitrogen heterocycle had little effect on the activity of these compounds. […] The aqueous solubility of all the compounds 12a1–12a6 was higher than that of 9a, particularly that of 12a1 and 12a2 containing piperazine rings. […] Of the six compounds with improved aqueous solubility, 12a1 had the best activity.
(§2) All human cell lines were used in this study. AGS gastric cancer cell, BEL-7402 liver cancer cell, HCT-116 colorectal cancer cell, L-02 normal liver cell, MCF-7 breast cancer cell, and MCF-10A normal breast cell were initially purchased from American Type Culture Collection (ATCC, Manassas, VA, USA). RPMI-1640 media, DMEM and FBS, were provided by Gibco Company. The cells were maintained in DMEM or RPMI-1640, supplemented with 10% FBS, 100 IU/mL penicillin and […] streptomycin, and at 37 °C in a humidified atmosphere containing 5% CO2.
(§3) The experiment was carried out according to the method of reference.

[2] = system: HCT-116 colorectal cancer cell; assay: MTT cell growth inhibition assay, HCT-116 colorectal cancer cells; format: cell-based, human; conditions: Homo sapiens, HCT-116; MTT; mean ± SD of three experiments
Text: as §1, §2, §3

[3] = system: AGS gastric cancer cell; assay: MTT cell growth inhibition assay, AGS gastric cancer cells; format: cell-based; conditions: Homo sapiens, mean ± SD of three experiments
Text: as §1, §2, §3

[4] = Aqueous solubility in 0.01 M PBS, high throughput UV method; format: physicochemical; conditions: for solubility thermodynamic at 1.5 h: aqueous phosphate buffer, aqueous buffer, sodium phosphate buffer 0.01 M, pH 7.4, 22 ± 2 °C, mean ± SD
Text: as §1
The aqueous solubility was determined as a previously reported procedure. Put simply, a certain amount of powdered compound was placed in a 2 mL centrifuge tube and mixed with an appropriate volume of aqueous phosphate buffer (10 mM, pH 7.4) to make the whole system supersaturated. The mixtures were sonicated (KQ5200DE numerical control ultrasonic cleaner, Kunshan Ultrasonic Instrument Co., Ltd., SuZhou, China) for 20 min. After sonication, the mixture was allowed to equilibrate at RT (22 ± 2 °C) for 1.5 h with vortex shaking (1200 rpm). Then centrifuged at 3000 rpm for 15 min (1-14k, sigma, Darmstadt, Germany), the supernatant was filtered with a 0.22 µM filter membrane. And then, take 150 µL of filtrate and add it to 96-well UV plate with triplicate. Draw 150 μL of blank solution was added into plate as blank control. The 96-well UV plate prepared above was read on a Synergy HTX Multifunctional Microplate Reader (BioTek, Vermont, USA) at 294 nm. The absorbance of the sample was corrected according to the UV response of the sample and blank solution, and the corrected UV response values were used for solubility calculations by bringing into the standard curve of the compound. […]
1.5. Solubility Assessment
The aqueous solubility was determined as previously reported using the high throughput solubility screens procedure published by Bruno Bard et al [9. 10]. Put simply, a certain amount of powdered compound was placed in a 2 ml centrifuge tube and mixed with an appropriate volume of aqueous phosphate buffer (0.01 M, pH 7.4) to make the whole system supersaturated. The mixtures were sonicated (KQ5200DE numerical control ultrasonic cleaner, Kunshan Ultrasonic Instrument Co., Ltd., China) for 20 min. After sonication, the mixture was allowed to equilibrate at room temperature (22 ± 2°C) for 1.5 h with vortex shaking (1200 rpm). Then the centrifuge tube was put into the centrifuge (1-14k, sigma, Germany), centrifuged with 3000 rpm for 15 minutes, 0.22 µM filter membrane filtration supernatant, then take 150 µl filtrate and add it to 96-well UV plate, with three well for each compound. Draw 150 μL blank solution were added into 96 well-plate as blank control. The 96-well UV […]
plate prepared above was read on a SynergyHTX Multifunctional microplate reader (BioTek, USA) at 338 nm (compounds 12a-12d and 15-20) or 370 nm (compounds 9a-d). The absorbance of the sample was corrected according to the UV response of the sample and blank solution, and the corrected UV responses value were used for solubility calculations by bring into the standard curve of the compound. […]

[5] = system: MCF-10A normal breast cell; assay: MTT cell growth inhibition assay, MCF-10A normal breast cells; format: cell-based; conditions: Homo sapiens, mean ± SD of three experiments, read-out: IC50 MCF-10A Normal Breast Epithelial Cells
Text: as §1, §2, §3

[6] = system: L-02 normal liver cell; assay: MTT cell growth inhibition assay, L-02 normal liver cells; format: cell-based; conditions: Homo sapiens, mean ± SD of three experiments
Text: as §1, §2, §3

[7] = system: BEL-7402 liver cancer cell; assay: MTT cell growth inhibition assay, BEL-7402 liver cancer cells; format: cell-based; conditions: Homo sapiens, mean ± SD of three experiments, read-out: IC50 BEL-7402 Hepatoma Cells
Text: as §1, §2, §3

Structure (SMILES)	IC50 [1] [µM]	IC50 [2] [µM]	IC50 [3] [µM]	solubility thermodynamic at 1.5 h [4] [µg/mL]	IC50 [5] [µM]	IC50 [6] [µM]	IC50 [7] [µM]	Water solubility (in words) ([4]; Figure 1)	Increase of aqueous solubility compared with 9a ([4]; 0.01 M PBS, ratio to 9a)	melting point [°C]
COc1ccc(/C(C#N)=C/c2ccc(N)cc2C)cc1OC [9d, (Z)-3-(4-Amino-2-methylphenyl)-2-(3,4-dimethoxyphenyl)acrylonitrile monohydrochloride]	> 100	5.86 ± 0.77	16.4 ± 0.42	1.7 ± 0.2	> 100	62.1 ± 10.6	9.72 ± 0.9	–	–	–
COc1cc(/C(C#N)=C/c2ccc(C)cc2)cc(OC)c1OC [compound 2, reference compound]	–	0.61 ± 0.16	–	4	–	–	–	Poor water solubility	–	–
CCN1CCN(CC(=O)Nc2ccc(/C=C(\C#N)c3ccc(OC)c(OC)c3)c(C)c2)CC1 [12d2]	28.7 ± 3.14	24 ± 2.46	15.3 ± 3.86	85.1 ± 13.2	38.4 ± 4.48	25.8 ± 2.56	21.3 ± 0.71	–	–	–
CCN1CCN(CC(=O)Nc2ccc(/C=C(\C#N)c3cc(OC)c(OC)c(OC)c3)cc2)CC1 [12a2]	14.9 ± 1.32	5.37 ± 0.03	11.9 ± 2.62	26940 ± 78.8	25.8 ± 3.73	16.6 ± 1.14	5.1 ± 0.37	–	–	–
CCN(CC)CC(=O)Nc1ccc(/C=C(\C#N)c2cc(OC)c(OC)c(OC)c2)cc1 [12a4]	13.3 ± 2.59	5.64 ± 0.15	12.6 ± 1.79	15.5 ± 2.3	24.8 ± 4.44	69.4 ± 7.3	3.81 ± 0.43	–	–	–
CCN1CCN(CC(=O)Nc2ccc(/C=C(\C#N)c3ccc(OC)c(OC)c3)cc2)CC1 [12c2]	31.1 ± 4.38	21.6 ± 2.87	48.8 ± 2.44	85.1 ± 13.2	29.7 ± 4.56	22.1 ± 2.64	10.1 ± 2.18	–	–	–
CCN1CCN(CC(=O)Nc2ccc(/C=C(\C#N)c3cc(OC)c(OC)c(OC)c3)c(C)c2)CC1 [12b2]	19.8 ± 3.16	6.68 ± 1.1	15 ± 2.32	253 ± 30.7	20.2 ± 2.4	22.1 ± 2.05	7.42 ± 1.76	–	–	–
COc1cc(/C(C#N)=C/c2ccc(NC(=O)CN3CCN(CCOCCO)CC3)cc2)cc(OC)c1OC [compound 16]	31.2 ± 4.73	12.6 ± 1.74	14.8 ± 3.37	2500 ± 266	18.9 ± 2.95	23.4 ± 3.61	14.4 ± 2.38	–	more than 231 times	–
COc1ccc(/C(C#N)=C/c2ccc(N)cc2)cc1OC [9c]	62.1 ± 8.12	4.05 ± 0.72	19.5 ± 3.61	4.5 ± 0.6	> 100	15.7 ± 1.79	3.91 ± 0.8	–	–	–
COc1cc(/C(C#N)=C/c2ccc(NC(=O)CN3CCN(CCOCCO)CC3)cc2)cc(OC)c1OC (as salt: hydrochloride) [compound 16]	–	–	–	–	–	–	–	–	–	240 to 243
COc1ccc(/C(C#N)=C/c2ccc(NC(=O)CN3CCN(C)CC3)cc2)cc1OC [12c1]	33.9 ± 2.22	4.4 ± 0.79	29.1 ± 1.98	124 ± 8.7	> 100	23.5 ± 3.87	8.95 ± 1.37	–	–	–
COc1cc(/C(C#N)=C/c2ccc(NC(=O)CN3CCN(C)CC3)cc2C)cc(OC)c1OC [12b1]	22.5 ± 3.6	5.25 ± 1.6	15.6 ± 0.73	104 ± 19.8	15.2 ± 0.66	20.3 ± 1.08	6.62 ± 2.09	–	–	–
COc1cc(/C(C#N)=C/c2ccc(NC(=O)CN3CCNC(C)C3)cc2)cc(OC)c1OC.Cl (stereo not shown) [compound 18]	12.8 ± 2.96	9.73 ± 0.9	11.5 ± 2.32	1050 ± 67.3	14.1 ± 3.71	28.4 ± 4.52	4.16 ± 0.97	–	–	–
COc1ccc(/C(C#N)=C/c2ccc(NC(=O)CN3CCN(C)CC3)cc2C)cc1OC [12d1]	33.4 ± 0.84	6.67 ± 2.38	40 ± 3.81	124 ± 8.7	54.5 ± 13.2	42.4 ± 1.91	9.53 ± 0.93	–	–	–
COc1cc(/C(C#N)=C/c2ccc(NC(=O)CN3CCCC3)cc2)cc(OC)c1OC [12a3]	12.6 ± 0.91	2.56 ± 0.58	17.9 ± 1.75	67.4 ± 2.9	16.9 ± 1.24	11 ± 0.82	4.63 ± 0.89	–	–	–
COc1cc(/C(C#N)=C/c2ccc(NC(=O)CN3CCN[C@@H](C)C3)cc2)cc(OC)c1OC (as salt: hydrochloride) [compound 17]	–	–	–	–	–	–	–	–	–	196 to 200
COc1cc(/C(C#N)=C/c2ccc(NC(=O)CN3CCN(C(C)C)CC3)cc2)cc(OC)c1OC.Cl [compound 15]	12.2 ± 0.93	8.32 ± 0.3	15.3 ± 3.02	8620 ± 525	21 ± 4.73	22.6 ± 1.36	14.7 ± 1.09	–	–	–
COc1cc(/C(C#N)=C/c2ccc(NC(=O)CN3CCOCC3)cc2)cc(OC)c1OC [12a5]	48.3 ± 5.41	6.87 ± 1.04	29.1 ± 1.98	15 ± 2.6	> 100	40.7 ± 5.18	6.74 ± 1.97	–	–	–
COc1cc(/C(C#N)=C/c2ccc(NC(=O)CN3CCN[C@@H](C)C3)cc2)cc(OC)c1OC [compound 17]	15.6 ± 1.87	10.3 ± 1.07	22.6 ± 1.45	504 ± 117	17.4 ± 3.56	28.2 ± 5.16	15 ± 2.32	–	–	–
